Test results published in ChEMBL document CHEMBL1133589, “N-3-substituted imidazoquinazolinones: potent and selective PDE5 inhibitors as potential agents for treatment of erectile dysfunction” (J Med Chem, 2000).

Columns and labels:
[1] = Relative inhibition of PDE4 of rat kidney and PDE5 of human platelets
[2] = Relative ihibition of bovine retina PDE6 and PDE5 of human platelets
[3] = Relative inhibition of bovine heart PDE1 and PDE5 of human platelets
[4] = Relative inhibition of PDE2 of rat kidney and PDE5 of human platelets
[5] = target: cGMP-specific 3',5'-cyclic phosphodiesterase (Homo sapiens, UniProt O76074); assay: Inhibition of phosphodiesterase type 5 (PDE5) of human platelets

Row | IC50 ratio [1] | IC50 ratio [2] | IC50 ratio [3] | IC50 ratio [4] | IC50 [5] [nM] | Compound
1 | 100 | 1 | 200 | 360 | 44 | CCCOc1ccccc1-c1nc(O)c2cc3[nH]cnc3cc2n1
2 | 600 | 20 | 3400 | > 10000 | 5.3 | CCCOc1ccc(S(=O)(=O)N2CCN(C)CC2)cc1-c1nc(O)c2cc3c(cc2n1)ncn3Cc1ccccc1
3 | 4200 | 60 | > 100000 | > 100000 | 0.48 | CCCOc1ccc(C(N)=O)cc1-c1nc(O)c2cc3c(cc2n1)ncn3Cc1ccc(F)cc1
4 | 1600 | 2 | 90 | 1300 | – | CCCOc1ccc(S(=O)(=O)N2CCN(C)CC2)cc1-c1nc(O)c2cc3[nH]cnc3cc2n1
